Experimental data: ChEMBL document CHEMBL2163249, “Exploration of natural compounds as sources of new bifunctional scaffolds targeting cholinesterases and beta amyloid aggregation: the case of chelerythrine” (Bioorg Med Chem, 2012)

What was measured:
[1] = target: Acetylcholinesterase (Electrophorus electricus) (UniProt O42275); details: at 2 mg/mL
Description: Inhibition of electric eel AChE at 2 mg/ml by Ellman's method

[2] = target: Cholinesterase (Equus caballus) (UniProt P81908); details: at 2 mg/mL
Sequence of Cholinesterase (Equus caballus) (P81908 whole entry): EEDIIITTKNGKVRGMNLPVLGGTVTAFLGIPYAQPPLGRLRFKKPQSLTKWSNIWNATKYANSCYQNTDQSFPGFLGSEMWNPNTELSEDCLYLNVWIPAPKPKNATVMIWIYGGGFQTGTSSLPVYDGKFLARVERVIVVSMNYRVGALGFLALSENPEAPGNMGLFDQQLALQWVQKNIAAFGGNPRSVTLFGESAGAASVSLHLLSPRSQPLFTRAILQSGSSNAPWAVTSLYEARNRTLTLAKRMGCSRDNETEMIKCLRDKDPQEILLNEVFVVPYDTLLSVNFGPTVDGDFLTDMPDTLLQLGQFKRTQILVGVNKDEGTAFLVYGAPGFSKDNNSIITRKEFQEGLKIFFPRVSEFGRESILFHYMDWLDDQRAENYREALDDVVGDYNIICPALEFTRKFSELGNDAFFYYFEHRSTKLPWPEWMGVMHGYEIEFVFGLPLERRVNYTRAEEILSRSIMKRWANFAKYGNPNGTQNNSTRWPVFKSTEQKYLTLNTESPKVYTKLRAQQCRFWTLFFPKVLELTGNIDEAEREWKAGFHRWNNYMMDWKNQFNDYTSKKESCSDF
Description: Inhibition of horse BChE at 2 mg/ml by Ellman's method

| Compound | inhibition [1] [%] | inhibition [2] [%] |
| --- | --- | --- |
| C=C1C(=O)[C@]23[C@H](CC[C@@H]1[C@@H]2O)[C@]12CO[C@@]3(O)[C@H](O)[C@H]1C(C)(C)CC[C@@H]2O | -3.57 | -8.92 |
| O=C(/C=C/c1ccc(O)cc1)CC(=O)/C=C/c1ccc(O)cc1 | 2 | 7.13 |
| CC1=C[C@]23C(=O)[C@@H](C=C(CO)[C@@H](O)[C@]2(O)[C@H]1O)[C@H]1[C@@H](C[C@H]3C)C1(C)C | -4.51 | -1.75 |
| CC[C@H]1CN2CCc3cc(OC)c(OC)cc3[C@@H]2C[C@@H]1C[C@H]1NCCc2cc(OC)c(OC)cc21 | 13.7 | 1.38 |
| C=C[C@H]1CN2CC[C@H]1C[C@H]2[C@H](O)c1ccnc2ccccc12 | 3.63 | -0.03 |
| NC[C@H]1O[C@H](O[C@H]2[C@H](O)[C@@H](O[C@H]3O[C@H](CO)[C@@H](O)[C@H](N)[C@H]3O)[C@H](N)C[C@@H]2N)[C@H](O)[C@@H](O)[C@@H]1O | 17.6 | -5.91 |
| COC1=C(C(C)=O)C2=C(C)Cc3c(OC)c(=O)c(O)c4cc(OC)c5c(OC)cc(O)c6c(c2c3c4c56)C1=O | 4.6 | -0.88 |
| C=CCc1ccc(O)c(-c2cc(CC=C)ccc2O)c1 | -2.45 | 0.25 |
| COc1cc(/C=C/C(=O)c2ccc(O)cc2O)ccc1O | 26.5 | -0.11 |
| Cc1cc(Cc2cc(C)cc(C(C)(C)C)c2O)c(O)c(C(C)(C)C)c1 | -4.45 | 0.28 |
| O=[N+]([O-])c1ncc[nH]1 | 4.77 | 14.4 |
| C[N+](C)(C)CC(O)CC(=O)O (racemic) | -6.56 | -2.91 |
| CC1=CC(=O)c2c(O)cccc2C1=O | 31.8 | 9.94 |
| CN1CCc2cc(O)c(O)cc2C1Cc1ccc(O)c(O)c1 (stereo unspecified) | 28.1 | 24.1 |
| CO[C@H]1C[C@@H]2CC[C@@H](C)[C@@](O)(O2)C(=O)C(=O)N2CCCC[C@H]2C(=O)O[C@H]([C@H](C)C[C@@H]2CC[C@@H](O)[C@H](OC)C2)CC(=O)[C@H](C)/C=C(\C)[C@@H](O)[C@@H](OC)C(=O)[C@H](C)C[C@H](C)/C=C/C=C/C=C/1C | 18.7 | 4.03 |
| COc1ccc2c3c([nH]c2c1)C(C)=NCC3 | 40.4 | 0.63 |
| CO[C@@H]1C[C@@H](C[C@H]2CC[C@H](C)[C@H]([C@@H](C)C(=O)O)O2)O[C@]2(O[C@](C)([C@H]3CC[C@@](C)([C@@H]4O[C@@H]([C@H]5O[C@@](O)(CO)[C@H](C)C[C@@H]5C)C[C@@H]4C)O3)C[C@H]2C)[C@@H]1C | -7.25 | 4.98 |
| CC[C@@H](C)[C@@H](O)[C@H](C)C(=O)[C@H](C)/C=C(\C)C[C@H](C)[C@@H]1OC(=O)[C@H]1CC | 2.88 | 99.8 |
| CCCC[C@@H](C)[C@@H](OC(=O)C[C@@H](CC(=O)O)C(=O)O)[C@H](C[C@@H](C)CCCCCC[C@@H](O)C[C@H](O)[C@H](C)N)OC(=O)C[C@@H](CC(=O)O)C(=O)O | -8.37 | 15.1 |
| BLEOMYCIN | 10.2 | 10.8 |
| C[C@@]1(CO)[C@H](O)CC[C@@]2(C)[C@H]1CC[C@H]1C[C@@H]3C[C@@]12CC[C@]3(O)CO | 8.45 | 13.5 |
| CC1=C2[C@H]3OC(=O)[C@@H](C)[C@@H]3CC[C@@]2(C)C=CC1=O | 3.63 | -3.62 |

| Compound | inhibition [1] [%] | inhibition [2] [%] |
| --- | --- | --- |
| C[C@@H]1CC[C@H]2[C@](C)(CO)[C@@H](O)CC[C@]2(C)[C@@]12CC[C@@](CO)(CCO)O2 | -4.53 | 6.75 |
| C[C@H]1COC2=C1C(=O)C(=O)c1c2ccc2c1CCCC2(C)C | 3.33 | 12.1 |
| O=c1c(-c2ccc(O)cc2)coc2cc(O)ccc12 | -3.93 | 0.02 |
| COc1cc([C@@H]2c3cc4c(cc3[C@@H](O)[C@H]3COC(=O)[C@H]23)OCO4)cc(OC)c1O | 6.34 | -7.02 |
| CN1C(=O)C[C@H](C(=O)O)[C@H]1c1cccnc1 (relative stereo) | -2.93 | -4.39 |
| COC(=O)[C@H]1[C@H]2C[C@H]3c4[nH]c5cc(OC)ccc5c4CCN3C[C@H]2C[C@@H](OC(=O)c2cc(OC)c(OC)c(OC)c2)[C@@H]1OC | -2.45 | -8.07 |
| C[C@H]1[C@H]2CC[C@H]3[C@@H]4CC=C5C[C@@H](N(C)C)CC[C@]5(C)[C@H]4CC[C@]23CN1C | 29.9 | 45.2 |
| O=C1C[C@@H](c2ccc(O)c(O)c2)Oc2cc(O)cc(O)c21 | 20.2 | -0.11 |
| C/C=C1/C[C@@H](C)[C@@](C)(O)C(=O)OCC2=CCN3CC[C@@H](OC1=O)[C@@H]23 | 7.46 | 19.2 |
| COc1cc([C@@H]2c3cc4c(cc3[C@H](O)[C@H]3COC(=O)[C@@H]23)OCO4)cc(OC)c1OC | 27.1 | -2.7 |
| COc1ccc2c(c1)[nH]c1c(C)nccc12 | 50.9 | 12.1 |
| CC1=C2C[C@H]3[C@@H](CC=C4C[C@@H](O)CC[C@@]43C)[C@@H]2CC[C@]12O[C@@H]1C[C@H](C)CN[C@H]1[C@H]2C | -3.81 | 5.84 |
| C[C@@H]1O[C@H](C[N+](C)(C)C)C[C@H]1O | -6.43 | -6.38 |
| C/C=C1\C[C@@H](C)[C@](O)(CO)C(=O)OCC2=CCN3CC[C@@H](OC1=O)[C@@H]23 | 4.15 | -3.05 |
| C[n+]1cc2c3c(ccc2c2ccc4cc5c(cc4c21)OCO5)OCO3 | 27 | 1.3 |
| CC1=C[C@]23C(=O)[C@@H](C=C(COC(=O)c4ccccc4)[C@@H](O)[C@]2(O)[C@H]1OC(=O)c1ccccc1)[C@H]1[C@@H](C[C@H]3C)C1(C)C | -0.16 | 1 |
| COc1ccc(C(=O)O[C@H]2CC[C@@]3(C)[C@@H]4CC[C@H]5[C@]6(O)C[C@H](O)[C@@]7(O)[C@@H](CN8C[C@@H](C)CC[C@H]8[C@@]7(C)O)[C@]6(O)C[C@@]53O[C@]24O)cc1OC | 21.8 | -4.13 |
| Cc1cc2cc3c(C)cc(=O)oc3c(C)c2o1 | 14.3 | 2.42 |
| CCCCCCCCCCCCCC(=O)O[C@@H]1[C@@H](C)[C@@]2(O)[C@@H](C=C(CO)C[C@]3(O)C(=O)C(C)=C[C@@H]23)[C@@H]2C(C)(C)[C@]12OC(C)=O | 19.6 | -6.35 |
| CC[C@@H](C(=O)O)[C@@H]1O[C@@H]([C@@H](C)[C@H](O)[C@H](C)C(=O)[C@H](CC)[C@H]2O[C@]3(C=C[C@@H](O)[C@]4(CC[C@@](C)([C@H]5CC[C@](O)(CC)[C@H](C)O5)O4)O3)[C@H](C)C[C@@H]2C)[C@@H](C)C[C@@H]1C | -1.36 | – |
| CC[C@]1(O)C[C@@H]2CN(CCc3c([nH]c4ccccc34)[C@@](C(=O)OC)(c3cc4c(cc3OC)N(C)[C@H]3[C@@](O)(C(=O)OC)[C@H](OC(C)=O)[C@]5(CC)C=CCN6CC[C@]43[C@@H]65)C2)C1 | 15.4 | 0.36 |
| O=c1c(O)c(-c2cc(O)c(O)c(O)c2)oc2cc(O)cc(O)c12 | 4.65 | -3.14 |

| Compound | inhibition [1] [%] | inhibition [2] [%] |
| --- | --- | --- |
| CO[C@H]1[C@@H](O)[C@@H](C)O[C@H](O[C@H]2[C@H](Oc3cccc4c(O)c5c(=O)oc6ccc(C)c7c(=O)oc(c34)c5c67)O[C@H](C)[C@H](O)[C@@H]2O)[C@@H]1O | 17.5 | 7.94 |
| C[C@@H]1C[C@H]2CC[C@H](O2)[C@H](C)C(=O)O[C@@H](C)C[C@@H]2CC[C@@H](O2)[C@@H](C)C(=O)O[C@H](C)C[C@H]2CC[C@@H](O2)[C@H](C)C(=O)O[C@@H](C)C[C@@H]2CC[C@@H](O2)[C@@H](C)C(=O)O1 | 16.4 | -1.31 |
| CO[C@@H]1[C@@H](OC)[C@H](C)[C@@](O)(CC(=O)O)O[C@H]1[C@H](C)[C@H]1O[C@@]2(CC[C@@](C)([C@H]3CC[C@@](C)([C@@H]4O[C@@H]([C@H]5O[C@](C)(O)[C@H](C)C[C@@H]5C)C[C@@H]4O[C@@H]4C[C@H](OC)[C@@H](OC)[C@H](C)O4)O3)O2)C[C@H](O)[C@H]1C | 22.7 | -3.8 |
| O=c1c(-c2ccc(O)cc2)coc2cc(O)cc(O)c12 | 7.3 | 10.5 |
| COc1ccc([C@@H]2CC(=O)c3c(O)cc(O[C@@H]4O[C@H](CO[C@@H]5O[C@@H](C)[C@H](O)[C@@H](O)[C@H]5O)[C@@H](O)[C@H](O)[C@H]4O)cc3O2)cc1O | -4.26 | – |
| O=c1c2ccccc2nc2n1CCc1c-2[nH]c2ccccc12 | -4 | – |
| COc1ccc(Cc2nccc3cc(OC)c(OC)cc23)cc1OC | 35 | – |
| C[C@@]12C=Cc3occc3[C@H]1CC[C@]13CC(=O)[C@H](CC[C@H]12)C3 | 8.34 | – |
| c1cncc([C@@H]2CCCCN2)c1 | 0.25 | – |
| CC1(C)O[C@H]2CC(=O)OC[C@]23[C@H]2CC[C@@]4(C)[C@H](c5ccoc5)OC(=O)[C@H]5O[C@]54[C@]2(C)C(=O)C[C@@H]13 | -0.85 | – |
| CC(C)=CCC/C(C)=C/CC/C(C)=C/CC/C(C)=C/CC/C(C)=C/CC/C(C)=C/CC/C(C)=C/CC/C(C)=C/CC/C(C)=C/CO | -1.74 | – |
| CCCCCC[C@@H]1[C@@H](OC(=O)C(C)C)[C@H](C)O[C@@H](O)[C@@H](N[C@H](O)c2cccc(NC=O)c2O)[C@@H](C)O[C@H]1O | -2.88 | – |
| CC[C@@H](CO)NC(=O)[C@@H]1C=C2c3cccc4[nH]cc(c34)C[C@H]2N(C)C1 | 6.45 | – |
| OCC1=C[C@@H](O)[C@@H]2C=CO[C@@H](O[C@@H]3O[C@H](CO)[C@@H](O)[C@H](O)[C@H]3O)[C@H]12 | -1.28 | – |
| O=C1c2ccc(O)cc2O[C@@H](c2cc(O)c(O)c(O)c2)[C@@H]1O | 4.04 | – |
| COc1ccc2c(c1O)-c1c(OC)c(OC)cc3c1[C@H](C2)N(C)CC3 | -6.07 | – |
| CC(=O)OC[C@@]1(O)C[C@@]23CC[C@@H]4c5ccoc5CC[C@@]4(C)[C@@H]2CC[C@@H]1C3 | -6.2 | – |
| CC1=C(C(=O)O)N2C(=O)[C@@H](NC(=O)[C@H](N)C3=CCC=CC3)[C@H]2SC1 | -0.38 | – |
| Nc1ncnc2c1ccn2[C@@H]1O[C@H](CO)[C@@H](O)[C@H]1O | 4.48 | – |
| C[C@@H]1C(=O)O[C@H]2C[C@@]34[C@H]5C[C@@H](C(C)(C)C)[C@]36[C@@H](OC(=O)[C@@H]6O)O[C@@]4(C(=O)O5)[C@]21O | 6.97 | – |
